The values below come from US10280149B2, “Therapeutic compounds and uses thereof” (GENENTECH, INC., priority 2015, dated 2019).

SMILES strings stand for the structures. Structures can show the parent of a compound that is named as a salt.

In general, IC50 refers to the concentration that gives 50% inhibition. Read a high IC50 as weaker potency in that assay.

Full length KDM2B, sequence (Q8NHM5 whole entry): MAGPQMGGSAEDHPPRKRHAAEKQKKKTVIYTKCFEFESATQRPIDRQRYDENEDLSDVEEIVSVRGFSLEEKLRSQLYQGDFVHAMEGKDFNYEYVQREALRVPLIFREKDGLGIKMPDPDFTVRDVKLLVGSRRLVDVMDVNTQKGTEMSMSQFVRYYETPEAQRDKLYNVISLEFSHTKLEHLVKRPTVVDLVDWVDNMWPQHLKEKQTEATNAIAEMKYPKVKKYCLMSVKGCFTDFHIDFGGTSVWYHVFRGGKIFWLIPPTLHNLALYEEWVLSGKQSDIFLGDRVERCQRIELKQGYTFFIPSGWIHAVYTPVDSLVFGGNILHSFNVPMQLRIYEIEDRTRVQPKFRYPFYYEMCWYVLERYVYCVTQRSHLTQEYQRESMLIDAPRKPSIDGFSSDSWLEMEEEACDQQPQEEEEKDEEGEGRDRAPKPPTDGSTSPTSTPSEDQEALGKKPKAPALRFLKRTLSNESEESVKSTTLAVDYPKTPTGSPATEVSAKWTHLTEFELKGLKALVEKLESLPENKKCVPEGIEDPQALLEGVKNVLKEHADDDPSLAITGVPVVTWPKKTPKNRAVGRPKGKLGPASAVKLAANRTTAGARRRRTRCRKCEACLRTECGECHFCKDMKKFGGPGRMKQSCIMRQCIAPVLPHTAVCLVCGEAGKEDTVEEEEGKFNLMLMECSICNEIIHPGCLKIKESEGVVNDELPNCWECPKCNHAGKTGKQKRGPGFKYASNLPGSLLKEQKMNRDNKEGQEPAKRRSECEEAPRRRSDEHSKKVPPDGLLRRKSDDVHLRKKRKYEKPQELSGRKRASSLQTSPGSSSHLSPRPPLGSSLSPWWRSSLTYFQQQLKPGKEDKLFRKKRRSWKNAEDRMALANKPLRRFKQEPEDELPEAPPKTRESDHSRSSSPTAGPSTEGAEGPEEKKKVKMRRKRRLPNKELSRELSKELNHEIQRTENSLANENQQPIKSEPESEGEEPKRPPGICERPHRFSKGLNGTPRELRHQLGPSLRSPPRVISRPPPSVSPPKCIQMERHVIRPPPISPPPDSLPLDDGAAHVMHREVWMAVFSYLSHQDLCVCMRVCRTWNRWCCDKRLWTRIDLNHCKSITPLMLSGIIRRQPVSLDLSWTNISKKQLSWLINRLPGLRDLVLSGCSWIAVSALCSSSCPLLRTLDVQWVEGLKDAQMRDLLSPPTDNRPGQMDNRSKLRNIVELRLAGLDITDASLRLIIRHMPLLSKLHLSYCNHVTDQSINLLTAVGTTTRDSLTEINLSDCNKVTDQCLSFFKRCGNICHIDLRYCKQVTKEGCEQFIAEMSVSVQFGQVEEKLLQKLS

The target in this assay is Full length KDM2B (Homo sapiens (Human), UniProt Q8NHM5). Description: KDM2B TR-FRET assay for determining inhibitor IC50. As to conditions: TR-FRET (HTRF), biotin-H3K36me2 peptide substrate, 2-OG 0.3 μM or 6 μM. The assay is classed as biochemical. From the text:
KDM2B TR-FRET Assay for Determining Inhibitor IC50
The KDM2B TR-FRET Assay described above represents an additional embodiment of the invention.
For orientation: TR-FRET usually uses a lanthanide donor and a delayed reading to cut background.
As to `COc1ccc2cc(C(=O)C3CN(C4CCC4)CCN3Cc3ccc(C#N)cc3)ccc2c1` (centres unmarked) [Example 199, 4-[[4-cyclobutyl-2-(6-methoxynaphthalene-2-carbonyl)piperazin-1-yl]methyl]benzonitrile], the IC50 was determined as 30.9 nM.
On to `CCCC1CCN(C2CCC2)CC1C(=O)c1ccc2cc(OC)ccc2c1` (single isomer, unassigned) [Example 140d, (1-cyclobutyl-4-propylpiperidin-3-yl)(6-methoxynaphthalen-2-yl)methanone], for which the IC50 stood at 9.96 nM.
Next, `COc1ccccc1C(=O)[C@@H]1CCCN(CC2CC2)C1` (stereo in doubt) [Example 111, (1-(cyclopropylmethyl)piperidin-3-yl)(2-methoxyphenyl)methanone]: 3100 nM.
In turn, `O=C(c1ccc(F)c2ccccc12)C1CCCN(CC2CC2)C1` (centres unmarked) [Example 127, (1-(cyclopropylmethyl)piperidin-3-yl)(4-fluoronaphthalen-1-yl)methanone hydrochloride] gave an IC50 of 1900 nM.
Next, `COc1ccc2cc(C(=O)[C@@]3(F)CCCN(CC4CC4)C3)ccc2c1` (stereo in doubt) [Example 157]: 6100 nM; `CCCN1CCCC(C(=O)c2ccc(Cl)c(Cl)c2)C1` (centres unmarked) [Example 101, (3,4-dichlorophenyl)-(1-propyl-3-piperidyl)methanone]: 279 nM.
In the case of `COc1ccc2cc(C(=O)C3CN(C4CCC4)CCN3Cc3ccc4ccccc4c3)ccc2c1` (centres unmarked) [Example 197, [4-cyclobutyl-1-(2-naphthylmethyl)piperazin-2-yl]-(6-methoxy-2-naphthyl)methanone], it took 165 nM to reach half-maximal inhibition (IC50).
Next, `O=C(c1cccc(Oc2ccccc2)c1)[C@@H]1CCCN(CC2CC2)C1` [Example 29, [(3R)-1-(cyclopropylmethyl)-3-piperidyl]-(3-phenoxyphenyl)methanone]: 148 nM.
